Data as given in patent US12180252B2, “Peptide derived from PEP27 peptide and uses thereof” (priority 2021, dated 2024).
≈ marks a conversion by molar mass, not a printed value. Where two headings read alike, the source gives them in different places.

Tests used:
[1] = system: P. aeruginosa 4007; test: microbe, parasite or virus in culture; settings: Pseudomonas aeruginosa, 4007, 18 h, read-out: Minimal inhibitory concentration
Procedure: (§1) In order to evaluate the antimicrobial activity of the peptides prepared by the method of above 1, a minimal inhibitory concentration (MIC) value as the minimum concentration of a peptide, in which cells are not divided, was measured.
(§2) Specifically, the strains shown in Table 3 below were purchased, cultured in a medium having a constitutional composition suitable for each strain to a mid-log phase, and then diluted to a concentration of 2×10^4 cells/100 μl to prepare the product on a micro-titration plate (Nunc, USA). Then, PEP27, PEP27-1, PEP27-2 or PEP27-5 peptide synthesized in the above 1 was added to each well by serial dilution ½ times, followed by incubation at 37° C. for 18 hours.
(§3) Specifically, subject strains were prepared by the method of above 2, and were treated with the antibiotics, that is, meropenem, ceftazidime, ceftriaxone or vancomycin, respectively, followed by determining MICs of the antibiotics.

[2] = system: P. aeruginosa 4891; test: microbe, parasite or virus in culture; settings: Pseudomonas aeruginosa, 4891, 18 h, read-out: Minimal inhibitory concentration
Procedure: as §1, §2, §3

[3] = system: P. aeruginosa ATCC15692; test: microbe, parasite or virus in culture; settings: Pseudomonas aeruginosa, ATCC15692, 18 h, read-out: Minimal inhibitory concentration
Procedure: as §1, §2, §3

[4] = system: P. aeruginosa ATCC27853; test: microbe, parasite or virus in culture; settings: Pseudomonas aeruginosa, ATCC27853, 18 h, read-out: Minimal inhibitory concentration
Procedure: as §1, §2, §3

[5] = system: S. aureus ATCC25923; test: microbe, parasite or virus in culture; settings: Staphylococcus aureus, ATCC25923, 18 h, read-out: Minimal inhibitory concentration
Procedure: as §1, §2, §3

[6] = system: S. aureus ATCC29213; test: microbe, parasite or virus in culture; settings: Staphylococcus aureus, ATCC29213, 18 h, read-out: Minimal inhibitory concentration
Procedure: as §1, §2, §3

[7] = system: S. aureus CCARM3089; test: microbe, parasite or virus in culture; settings: Staphylococcus aureus, CCARM3089, 18 h, read-out: Minimal inhibitory concentration
Procedure: as §1, §2, §3

[8] = system: S. aureus CCARM3090; test: microbe, parasite or virus in culture; settings: Staphylococcus aureus, CCARM3090, 18 h, read-out: Minimal inhibitory concentration
Procedure: as §1, §2, §3

[9] = system: S. aureus CCARM3518; test: microbe, parasite or virus in culture; settings: Staphylococcus aureus, CCARM3518, 18 h, read-out: Minimal inhibitory concentration
Procedure: as §1, §2, §3

[10] = system: S. aureus MW2; test: microbe, parasite or virus in culture; settings: Staphylococcus aureus, MW2, 18 h, read-out: Minimal inhibitory concentration
Procedure: as §1, §2, §3

[11] = system: S. aureus USA300; test: microbe, parasite or virus in culture; settings: Staphylococcus aureus, USA300, 18 h, read-out: Minimal inhibitory concentration
Procedure: as §1, §2, §3

[12] = system: Staphylococcus aureus MW2; type: in vivo, BALB/c mouse; settings: for reduction of the number of bacteria in abscess tissue: 0.2 mg/kg alone, injected 2 hours after infection
Procedure: The efficacy of PEP27-2, which is the peptide having the most excellent antimicrobial activity among the peptides prepared by the method of above 1 was evaluated in vivo using a mouse model.
Specifically, the epidermis on the back side (dorsal side) of 6-7 week old BALB/c mouse was infected with Staphylococcus aureus MW2 having GFP gene inserted therein (S. aureus MW2-GFP, 1×10^9 CFU/10 μl PBS). After 2 hours form infection, PEP27-2 alone (0.2 mg/kg, 50 μl), ceftriaxone alone (0.2 mg/kg, 50 μl) or a combination of the peptide and the antibiotic (0.05 mg/kg PEP27-2+0.1 mg/kg ceftriaxone, 50 μl) was injected. Further, the control mice were injected with the same amount of PBS ([…]) without peptide. On 1st, 2nd, 3rd, 4th, 5th and 7th days after treatment, the shape of abscess was photographed, and surrounding tissues as well as the abscess were gathered. The abscess tissue was homogenized in 500 μl of sterile PBS using a tissue grinder. A serial diluted solution of the homogenate was spread on an agar plate and cultured for 24 hours in order to quantify the Staphylococcus aureus MW2 strain.

[13] = system: Staphylococcus aureus MW2-GFP; type: in vivo, mouse; settings: up to 3 days after infection with 1×10^9 CFU
Procedure: For real-time tracking the progress of infection with regard to the peptide that has the most excellent antimicrobial activity among the peptides prepared by the method of above 1, fluorescence (GFP)-labeled Staphylococcus aureus MW2 (Staphylococcus aureus MW2-GFP) was used. Fluorescence images were taken from the beginning of infection to 6 hours, 1 day, 2 days and 3 days by means of an FOBI fluorescence imaging system (Neo Science, Suwon, Korea), followed by analysis thereof using live image software.

[14] = system: Staphylococcus aureus MW2; test: Hematoxylin and eosin staining of abscess tissue; type: in vivo, mouse; settings: tissue on day 7, treated 2 hours after infection
From the text: Among tissues on the abscess portion and infected portion gathered in the above 13, the tissue on day 7 was fixed with 4% buffered formalin. The infection portion or abscess portion fixed with formalin was embedded in paraffin, while staining a fragment of the cross-section with hematoxylin and eosin.

[15] = system: TNF-α, IL-1β, IL-6, iNOS and COX-2; test: Pro-inflammatory cytokine gene expression in abscess tissue, qPCR; type: in vivo, mouse; settings: mRNA relative to β-actin
Procedure: For mice not infected with bacteria, infected mice, and mice subjected to treatment using PEP27-2 alone, ceftriaxone alone or a combination thereof after infection, the expression of inflammatory genes in the mice were measured thus to verify the efficacy of each of PEP27-2 single treatment and combination treatment with antibiotics.
Specifically, total RNA was isolated from wound tissues using Trizol reagent. From the prepared total RNA, cDNA was synthesized using a cDNA synthesis kit. qPCR was implemented using qPCR 2× premix (SYBR Green), followed by determining expression amounts of TNF-α, IL-1β, IL-6, iNOS and COX-2 among inflammatory genes. Expression levels were quantified based on β-actin, and the PCR process was conducted as followed: at 50° C. for 2 minutes and at 95° C. for 10 minutes; 95° C. for 15 seconds, 60° C. for 1 minute, 40 cycles; 95° C. for 15 seconds, 60° C. for 1 minute, 95° C. for 30 seconds, and 60° C. for 15 seconds. The gene expression was calculated after standardization to β-actin level through ΔΔCt method.

[16] = system: HaCaT cells; test: Cell absorption of peptide (fluorescence imaging); type: cell-based, human; settings: 5 μM, 1 hour
Procedure: With regard to the synthetic peptide prepared by the method of above 1, an ability of penetrating cells was determined through a phase-contrast microscope. Specifically, human keratinocyte line (HaCaT cells) was dispensed on a 6-well plate provided with a polylysine coating cover slip (SPL Life Sciences, Gyeonggi-do, Korea) at 2×10^5 cells/well and cultured for 24 hours, and then treated with fluorescein isothiocyanate (FITC)-labeled PEP27-2 (FITC-PEP27-2) at a concentration of 5 μM, followed by incubation in a 5% CO2 incubator for 1 hour. After 1 hour, a nucleus of the cell was treated and stained with Hoechst 33342 nucleic acid dye solution (Invitrogen, Carlsbad, CA, USA; 8 μM) for 10 minutes. After washing the stained product with PBS three times, fluorescence in the cells was imaged using a phase-contrast microscope (EVOS™ FL Auto 2 Imaging System, Thermo Fisher Scientific).

Compound | MIC [1] [µM] | MIC [2] [µM] | MIC [3] [µM] | MIC [4] [µM] | MIC [5] [µM] | MIC [6] [µM] | MIC [7] [µM] | MIC [8] [µM] | MIC [9] [µM] | MIC [10] [µM] | MIC [11] [µM] | size of formed abscess ([12]; compared with infected group injected only with PBS, up to day 7) | reduction of the number of bacteria in abscess tissue ([12]; day 3) [%] | reduction of the number of bacteria in abscess tissue ([12]; day 7) [%] | fluorescence signal of S. aureus MW2-GFP at the abscess [13] | number of visible scabs formed on the skin surface and number of bacteria [14] | expression of inflammatory cytokines (TNF-α, IL-1β, IL-6, iNOS, COX-2) [15] | cellular absorption into HaCaT cells [16]
CO/N=C(\C(=O)N[C@@H]1C(=O)N2C(C(=O)O)=C(CSc3nc(=O)c(=O)[nH]n3C)CS[C@H]12)c1csc(N)n1 [Ceftriaxone, ceftriaxone] | 16 (≈ 8.87 µg/mL) | 64 (≈ 35.5 µg/mL) | 16 (≈ 8.87 µg/mL) | 8 (≈ 4.44 µg/mL) | 8 (≈ 4.44 µg/mL) | 4 (≈ 2.22 µg/mL) | 512 (≈ 284 µg/mL) | 512 (≈ 284 µg/mL) | 256 (≈ 142 µg/mL) | 32 (≈ 17.7 µg/mL) | 16 (≈ 8.87 µg/mL) | smaller than the experimental group in which only PBS was injected | 46.0 | 61.5 | not reduced | markedly reduced | suppressed | –
GRKKRRQRRRPQ (TAT) | – | – | – | – | – | – | – | – | – | – | – | – | – | – | – | – | – | absorbed into the cytoplasm and the nucleus of HaCaT cell
